Assay results taken from patent US10495648B2, “Methods of treating liver fibrosis” (GILEAD SCIENCES, INC., priority 2017, dated 2019).
Several values for one entry are separate records, joined by “and”; a condition that tells them apart may be missing. Identical values can stand only once.

Legend:
Assay type in all cases: in vivo, human
plasma miRNAs = test: Plasma miRNA qPCR in phase 2 study GS-US-384-1497, miRNAs modulated by SEL treatment
Text: Plasma samples were obtained from 72 subjects enrolled in the GS-US-384-1497 Gilead study. The study is a phase 2 study evaluating the safety, tolerability, and efficacy of selonsertib (ASK1 inhibitor) alone or in combination with simtuzumab (SIM) in subjects with Nonalcoholic Steatohepatitis (NASH) and fibrosis stages F2-F3. The inclusion criteria included patients with metabolic syndrome, serum ALT≥1.5×ULN and ≤5×ULN, and Fibroscan that measures liver stiffness: ≥7 kPa and <12 kPa, or NAS score greater ≥5 with fibrosis stage 2 to 3.
Total RNA samples were isolated and 301 selected miRNA were measured by qPCR. MiRNA expression levels were normalized using the global mean of all expressed miRNAs. Differential expression analyses were performed using limma method; p-values in multiple comparisons were corrected using the Benjamini-Hochberg method. Spearman correlations were calculated between miRNA expression with fibrosis stage and NAS score at baseline and at week 24.
11 miRNAs (hsa-miR-505-3p, hsa-miR-29a-3p, hsa-miR-215-5p, hsa-miR-148a-3p, hsa-miR-99a-5p, hsa-miR-885-5p, hsa-miR-122-5p, hsa-miR-34a-5p, hsa-miR-365a-3p, hsa-miR-194-5p, hsa-miR-155-5p) with nominal […] were modulated by SEL treatment, see Table 2 below.

plasma miRs = test: Plasma miR qPCR in GS-US-321-0105 and GS-US-321-0106, association with SIM treatment
Experimental: Screen failed subjects were included in the analysis to ensure the miRs were analyzed in all the fibrosis stages. The samples analyzed after quality control, which excluded samples that were hemolyzed and samples that had overall low expression of miRs.
Plasma miRs were isolated with spike-in controls using total RNA isolation kit (Exiqon, Denmark). Complementary DNA was synthesized with spike-in control using the Exiqon cDNA synthesis kit and selected plasma miRs (n=157) were measured at BL, W12, and W24 by qPCR using the Exiqon platform (Covance, USA). For the 1497 study, 301 miRs were measured but only 132 miRs were expressed therefore for the 105/106 studies we measured the 132 miRs with 25 additional miRs were measured for the 105/106 study. The data was normalized using Global fit method of normalization.

NASH patients = test: Safety and efficacy of SIM in NASH patients, studies GS-US-321-0105 and GS-US-321-0106 (fibrosis)
Experimental: The miR analysis was expanded to using GS-US-321-0105 and GS-US-321-0106 studies where biopsy proven samples were used from NASH patients. These studies had evaluated the safety and efficacy of Simtuzamab (SIM) in NASH patients. […] It was observed that 20% of the samples had fibrosis improvement, 20% fibrosis […] and for the rest of the subjects the fibrosis remained unchanged. As these samples represented the natural history of fibrosis changes, miR expression was analyzed in these samples.
Subjects in GS-US-384-1497 phase 2 trials were enrolled with F2-3 Stages of fibrosis and subjects in GS-US-321-0105 phase 2 trial were enrolled with F3 Stage of fibrosis and GS-US-321-0106 phase 2 trial subjects were enrolled with F4 stage of fibrosis.

| Molecule | Fold Change miR-29a-3p (plasma miRNAs; 6 mg SEL ± SIM, week 24) | Fold Change miR-34a-5p (plasma miRNAs; 6 mg SEL ± SIM, week 24) | Fold Change miR-99a-5p (plasma miRNAs; 6 mg SEL ± SIM, week 24) | Fold Change miR-122-5p (plasma miRNAs; 6 mg SEL ± SIM, week 24) | Fold Change miR-148a-3p (plasma miRNAs; 6 mg SEL ± SIM, week 24) | Fold Change miR-194-5p (plasma miRNAs; 6 mg SEL ± SIM, week 24) | Fold Change miR-215-5p (plasma miRNAs; 6 mg SEL ± SIM, week 24) | Fold Change miR-365a-3p (plasma miRNAs; 6 mg SEL ± SIM, week 24) | Fold Change miR-505-3p (plasma miRNAs; 6 mg SEL ± SIM, week 24) | Fold Change miR-885-5p (plasma miRNAs; 6 mg SEL ± SIM, week 24) | Fold Change miR-34a-5p (plasma miRNAs; 18 mg SEL ± SIM, week 24) | Fold Change miR-99a-5p (plasma miRNAs; 18 mg SEL ± SIM, week 24) | Fold Change miR-155-5p (plasma miRNAs; 18 mg SEL ± SIM, week 24) | Fold Change miR-885-5p (plasma miRNAs; 18 mg SEL ± SIM, week 24) | number of miRNAs modulated by SEL treatment (plasma miRNAs; GS-US-384-1497, week 24) | miRs associated with SIM treatment (plasma miRs) | effect on fibrosis (NASH patients) |
| --- | --- | --- | --- | --- | --- | --- | --- | --- | --- | --- | --- | --- | --- | --- | --- | --- | --- |
| Cc1cc(F)c(C(=O)Nc2cccc(-c3nncn3C(C)C)n2)cc1-n1cnc(C2CC2)c1 [SEL, selonsertib] | −1.23 | −1.54 | −1.33 | −1.42 | −1.28 | −1.30 | −1.27 | −1.65 | −1.24 | −1.37 | −1.33 | −1.25 | 1.33 | −1.56 | 11 and 12 |  |  |
| simtuzumab (antibody, chains of the INN, looked up, V domains shown) VH: QVQLVQSGAEVKKPGASVKVSCKASGYAFTYYLIEWVRQAPGQGLEWIGVINPGSGGTNYNEKFKGRATITADKSTSTAYMELSSLRSEDTAVYFCARNWMNFDYWGQGTTVTVSS VL: DIVMTQTPLSLSVTPGQPASISCRSSKSLLHSNGNTYLYWFLQKPGQSPQFLIYRMSNLASGVPDRFSGSGSGTDFTLKISRVEAEDVGVYYCMQHLEYPYTFGGGTKVEIK |  |  |  |  |  |  |  |  |  |  |  |  |  |  |  | no miRs associated with SIM treatment | ineffective at reducing fibrosis |
